Experiments:
[1] = system: MCF7 cells (breast tumor cells) WT; experiment: Test B: cell proliferation/viability assay (CellTiter-Glo) on MCF7 WT; type: cell-based; conditions: Homo sapiens, MCF7, 168 h, 7 days of compound exposure
How it was run: (§1)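 Seed cells in phenol red-free MEM plus 5% charcoal dextran-stripped FBS. Next day add compound, 9-point 1:5 series, 3-0.000001 μM final. After 7 days, add CellTiter-Glo, read luminescence, and normalise to untreated after subtracting cell-free background.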

[2] = system: MCF7 cells expressing mutant estrogen receptor Tyr 537 Ser; experiment: Test B: cell proliferation/viability assay (CellTiter-Glo) on MCF7 Tyr 537 Ser mutant; type: cell-based; conditions: Homo sapiens, MCF7, 168 h, MCF7 cells expressing ER Tyr 537 Ser mutant, 7 days of compound exposure, read-out: proliferation MCF7 Y537S IC50
How it was run: as §1

[3] = target: His6-ERα298-554 WT (ERα ligand-binding domain) (Homo sapiens (Human), UniProt P03372); experiment: Test A: biochemical antagonist activity, LanthaScreen TR-FRET ERα coactivator assay, WT; conditions: asterisk (*): protocol using 10 nM estradiol; read-out: Antagonism WT IC50
How it was run: (§2)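 His6-ERα LBD (aa 298–554), 0.5 nM, with Tb-anti-His6 antibody, 250 nM PGC1a peptide and 3 nM (or 10 nM) estradiol in pH 7.4 potassium phosphate/DTT buffer; incubated with compound overnight at room temperature. IC50 from 4-parameter logistic fit of TR-FRET 520:495 nm ratio.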

ERα in MCF7 cells = ERα in MCF7 cells (Homo sapiens (Human), UniProt P03372); experiment: Test C: estrogen receptor degradation activity, ERα in cell western assay in MCF7 cells; type: cell-based; conditions: for DC50: 4 hours post compound addition, ERα in cell western, read-out: Degradation IC50; for % Degradation at 3 μM: 4 hours, relative to fulvestrant
How it was run: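 ERα level is read as integrated green fluorescence, with DNA taken from red Syto-64 signal, after MCF7 cells are exposed to compound for 4 hours. Cells grow in hormone-depleted medium (5% charcoal-dextran stripped FBS, no phenol red); fulvestrant at 0.1 μM is the positive control.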

[4] = system: MCF7 cells expressing mutant estrogen receptor Asp 538 Gly; experiment: Test B: cell proliferation/viability assay (CellTiter-Glo) on MCF7 Asp 538 Gly mutant; type: cell-based; conditions: Homo sapiens, MCF7, 168 h, MCF7 cells expressing ER Asp 538 Gly mutant, 7 days of compound exposure, read-out: proliferation MCF7 D538G IC50
How it was run: as §1

[5] = target: His6-ERα298-554 D538G mutant (ERα ligand-binding domain) (Homo sapiens (Human), UniProt P03372, D538G); experiment: Test A: biochemical antagonist activity, LanthaScreen TR-FRET ERα coactivator assay, D538G mutant; conditions: asterisk (*): protocol using 10 nM estradiol; read-out: Antagonism D538G IC50
How it was run: as §2

[6] = target: His6-ERα298-554 Y537S mutant (ERα ligand-binding domain) (Homo sapiens (Human), UniProt P03372, Y537S); experiment: Test A: biochemical antagonist activity, LanthaScreen TR-FRET ERα coactivator assay, Y537S mutant; conditions: asterisk (*): protocol using 10 nM estradiol; read-out: Antagonism Y537S IC50
How it was run: as §2

Chain of His6-ERα298-554 Y537S mutant (ERα ligand-binding domain) (P03372 298-554 Y537S): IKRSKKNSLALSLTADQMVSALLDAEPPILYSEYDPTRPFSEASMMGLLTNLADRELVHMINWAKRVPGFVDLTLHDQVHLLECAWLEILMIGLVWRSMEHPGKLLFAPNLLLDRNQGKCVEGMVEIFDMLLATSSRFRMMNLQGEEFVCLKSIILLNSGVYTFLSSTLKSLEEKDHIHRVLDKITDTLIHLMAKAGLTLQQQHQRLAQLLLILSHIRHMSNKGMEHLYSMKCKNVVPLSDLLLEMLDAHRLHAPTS
Chain of ERα in MCF7 cells (P03372 whole entry): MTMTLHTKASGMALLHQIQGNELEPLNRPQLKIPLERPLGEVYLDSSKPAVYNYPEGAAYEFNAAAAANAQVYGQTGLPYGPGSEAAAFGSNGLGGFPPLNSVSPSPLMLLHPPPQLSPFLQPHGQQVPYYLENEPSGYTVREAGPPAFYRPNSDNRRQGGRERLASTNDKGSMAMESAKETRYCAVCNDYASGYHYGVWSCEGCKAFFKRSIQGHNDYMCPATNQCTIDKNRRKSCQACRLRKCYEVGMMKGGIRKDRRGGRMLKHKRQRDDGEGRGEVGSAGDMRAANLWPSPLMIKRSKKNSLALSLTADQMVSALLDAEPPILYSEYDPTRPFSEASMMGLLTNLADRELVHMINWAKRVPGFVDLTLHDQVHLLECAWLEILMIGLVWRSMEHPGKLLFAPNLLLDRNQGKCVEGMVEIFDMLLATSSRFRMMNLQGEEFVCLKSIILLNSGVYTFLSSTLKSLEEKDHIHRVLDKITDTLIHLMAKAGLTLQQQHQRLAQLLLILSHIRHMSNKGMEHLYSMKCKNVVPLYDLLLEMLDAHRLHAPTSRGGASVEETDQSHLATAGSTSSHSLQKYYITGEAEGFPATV
Chain of His6-ERα298-554 WT (ERα ligand-binding domain) (P03372 298-554): as the sequence (P03372 298-554 Y537S) above, with S240Y counted along it
Chain of His6-ERα298-554 D538G mutant (ERα ligand-binding domain) (P03372 298-554 D538G): as the sequence (P03372 298-554 Y537S) above, with S240Y, D241G counted along it

SMILES	IC50 [1]	IC50 [2]	IC50 [3]	DC50 (ERα in MCF7 cells)	% Degradation at 3 μM (ERα in MCF7 cells)	IC50 [4]	IC50 [5]	IC50 [6]
Oc1ccc2c(c1)CCCC(c1ccc(OC(F)(F)F)cc1)=C2c1ccc(O[C@H]2CCN(CCCF)C2)nc1 [Example 253, 5-[6-[(3S)-1-(3-fluoropropyl)pyrrolidin-3-yl]oxy-3-pyridyl]-6-[4-(trifluoromethoxy)phenyl]-8,9-dihydro-7H-benzo[7]annulen-2-ol]	0.1 nM	2 nM	7 nM	0.2 nM	85%	0.1 nM	155 nM	95 nM
CC/C(=C(/c1ccc(O[C@H]2CCN(CCCF)C2)cc1)c1ccc2[nH]ncc2c1)c1ccc(F)cc1Cl [Example 255, 5-[(E)-2-(2-chloro-4-fluoro-phenyl)-1-[4-[(3S)-1-(3-fluoropropyl)pyrrolidin-3-yl]oxyphenyl]but-1-enyl]-1H-indazole]	0.1 nM	6 nM	15 nM	0.6 nM	92%	0.9 nM	190 nM	140 nM
Oc1ccc(C2Sc3cc(O)ccc3OC2c2ccc(O[C@H]3CCN(CCCF)C3)cc2)cc1 (stereo partly drawn) [Example 258, 2-[4-[(3S)-1-(3-fluoropropyl)pyrrolidin-3-yl]oxyphenyl]-3-(4-hydroxyphenyl)-2,3-dihydro-1,4-benzoxathiin-6-ol]	6 nM	17 nM	203 nM	5 nM	77%	1 nM	> 4000 nM	2420 nM

— patent US11149031B2, “Substituted N-(3-fluoropropyl)-pyrrolidine compounds, processes for their preparation and therapeutic uses thereof” (SANOFI, priority 2016, dated 2021)
